Literature values in patent US7378519B2, “Adduct of topiramate and tramadol hydrochloride and uses thereof” (Cilag GmbH International, priority 2002, dated 2008).
Where a name gives a salt, the structure may show the parent alone.

Test system: Chung model of post-nerve constriction injury
Conditions: each drug alone, as the dose is escalated

Row | Compound | MPE (Maximum Possible Effect) reached [% MPE]
1 | COc1cccc(C2(O)CCCCC2CN(C)C)c1 (single isomer, unassigned) [tramadol hydrochloride, (1R,2R or 1S,2S)-2-[(dimethylamino)methyl]-1-(3-methoxyphenyl)-cyclohexan-1-ol] | 100
2 | CC1(C)O[C@@H]2[C@@H](CO[C@@]3(COS(N)(=O)=O)OC(C)(C)O[C@@H]23)O1 [topiramate, 2,3:4,5-bis-O-(1-methylethylidene)-β-D-fructopyranose sulfamate] | 100
